Read-outs that look alike come from different tables or passages of the source.
Assays:
PAMPA‐GIT = assay type: in vitro ADME; conditions: for Classification: standard drugs used as control
Protocol: (§1) The lipid mixture that impregnates the filter has a different constitution for the permeability tests for the BBB (brain lipid from pig extract in n‐dodecane) and the GIT (L‐α soy phosphatidylcholine in n‐dodecane). The optical density values obtained in the reading at each selected wavelength, for each of the compounds, were analyzed in comparison with the values of several controls within a calibration curve (≥ 7 drugs). In the case of the BBB, these values were used to elaborate an equation and determine the permeability coefficient (Pe), while GIT used absorbed fraction (Fa%).

[1] = PAMPA-GIT, standard drugs; literature value, ref not given; cited from earlier work
PAMPA‐BBB = assay type: in vitro ADME; conditions: for Classification: standard drugs used as control
Protocol: as §1

PC‐9 (EGFRL858R) [2] = experiment: Apoptosis by flow cytometry (Muse Annexin V & Dead Cell Kit); assay type: cell-based, human; conditions: PC‐9, 72 h; for increase in the population of cells undergoing apoptosis: at their CC50; for phosphatidylserine externalization and cell membrane permeabilization, share of the NSCLC cell population: LASSBio‐1974 10 µM, CA‐4 0.1 µM
Protocol: (§2) PC‐9 (EGFRL858R) cell line was seeded at 1 × 10^5 cells/well in a 24‐well plate. […] All flow cytometry assays were performed using Guava Muse Cell Analyzer (Cytek Biosciences) following each kit user's guide provided by the manufacturer. Muse Cell Cycle Kit (catalog no. MCH100106) was chosen to evaluate cell cycle arresting. Apoptosis features were evaluated using Muse Annexin V & Dead Cell Kit (catalog no. MCH100105), as well as inactivation of EGFR using Muse EGFR‐RTK Activation Dual Detection Kit (catalog no. MCH200102). Statistical analysis was performed using one‐way ANOVA on data collected in duplicate from at least two independent experiments (n ≥ 2), employing GraphPad Prism software (version 8.0).

[3] = test system: NCI‐H1975 (EGFRL858R/T790M); experiment: Cell viability by MTT assay, NCI-H1975; conditions: Homo sapiens; for IC50: read-out: cytotoxic activity, NCI-H1975 (EGFRL858R/T790M); for CC50: NCI-H1975, 72 h, read-out: cytotoxic activity CC50, NCI‐H1975 (EGFRL858R/T790M)
Protocol: (§3) All cell lines were harvested at 37°C and 5% CO2 atmosphere humid incubator.
(§4) Cells were plated at 1 × 10^4 to 3 × 10^4 cells/well and seeded in a 96‐well plate. After 16–24 h of cell acclimatization, compounds were added at 0.003–100 µM concentrations (1% DMSO vehicle). After 72 h, treatment was interrupted to measure cell viability using MTT (3‐(4,5‐dimethylthiazol‐2‐yl)‐2,5‐diphenyltetrazolium bromide) (50 µg/mL) [62]. Formazan formed by viable cells was solubilized after 4 h incubation with SDS/HCl solution (0.1 g/mL) and read at 570 nm in spectrophotometer.

[4] = test system: NCI‐H1975 (EGFRL858R/T790M); experiment: Cell viability by sulforhodamine B (SRB) assay, NCI-H1975; assay type: cell-based; conditions: Homo sapiens, 72 h, read-out: cytotoxic activity CC50, NCI‐H1975 (EGFRL858R/T790M)
Protocol: as §3
(§5) Cells were plated at 1 × 10^4 to 3 × 10^4 cells/well and seeded in a 96‐well plate. After 16–24 h of cell acclimatization, compounds were added at 0.003–100 µM concentrations (1% DMSO as vehicle). The experimental procedure was handled as described by Vichai and Kirtikara [63]. After incubation, cells were fixed with trichloroacetic acid (TCA) (10% m/v) for 1 h at 4°C. SRB (0.004% w/v in acetic acid 1%) was added for 30 min and washed with acetic acid 1%.

EGFR in PC‐9 (EGFRL858R) = experiment: EGFR activation by flow cytometry (Muse EGFR‐RTK Activation Dual Detection Kit); assay type: cell-based, human
Protocol: as §2

PC‐9 (EGFRL858R) [5] = experiment: Cell cycle by flow cytometry (Muse Cell Cycle Kit); assay type: cell-based, human; conditions: PC‐9, 24 h
Protocol: as §2

[6] = Microsomal metabolic stability; assay type: in vitro ADME, rat; conditions: for Metabolism rate: RLM 1 mg/mL, 10 μM, 60 min; for Elimination rate constant (k) / half-life at 10 µM / microsomal CLint at 10 µM: RLM; for half-life at 10 µM / microsomal CLint at 10 µM: rat, rat liver microsomes
Protocol: The metabolic stability of compounds LASSBio‐1971 (1) and LASSBio‐1974 (2) (10 μM) was incubated in 1 mg/mL of rat microsomes in the presence and absence of the cofactor (i.e., NADPH‐generating system) at the same concentrations as in the previous section. After mixing and incubating at 37°C in a shaking water bath for 1 h, 500 µL cold acetonitrile containing the internal standard was added to terminate the reaction at different time intervals (0, 15, 30, 45, and 60 min).

EGFRwt = test system: EGFRwt; parameters: method as in PMID 30626888; conditions: in vitro enzymatic model; cited from earlier work
EGFRL858R = test system: EGFRL858R; parameters: method as in PMID 30626888; conditions: in vitro enzymatic model; cited from earlier work
EGFRL858R/T790M = test system: EGFRL858R/T790M; parameters: method as in PMID 30626888; conditions: in vitro enzymatic model; cited from earlier work
PC‐9 (EGFRL858R) [7] = experiment: Cell viability by MTT assay, PC-9; conditions: for IC50: read-out: cytotoxic activity, PC-9 (EGFRL858R)
Protocol: as §3, §4

NCI‐H292 (EGFRwt) [8] = experiment: Cell viability by MTT assay, NCI-H292; conditions: Homo sapiens; for IC50: read-out: cytotoxic activity, NCI-H292 (EGFRw.t.); for CC50: NCI-H292, 72 h
Protocol: as §3, §4

PC‐9 (EGFRL858R) [9] = experiment: Cell viability by sulforhodamine B (SRB) assay, PC-9; conditions: Homo sapiens, 72 h, read-out: cytotoxic activity CC50, PC‐9 (EGFRL858R)
Protocol: as §3, §5

NCI‐H292 (EGFRwt) [10] = experiment: Cell viability by sulforhodamine B (SRB) assay, NCI-H292; conditions: Homo sapiens, NCI-H292, 72 h, read-out: cytotoxic activity CC50, NCI‐H292 (EGFRwt)
Protocol: as §3, §5

[11] = PAMPA-GIT, standard drugs used as control (n = 2)
[12] = PAMPA-GIT, standard drugs used as control (n = 2), read-out: Pe experimental
[13] = NADPH regenerator system: Absence
[14] = NADPH regenerator system: Presence
[15] = Homo sapiens, 72 h, read-out: cytotoxic activity CC50, PC‐9 (EGFRL858R)

Nc1nc2c(ncn2COCCO)c(=O)[nH]1 [Acyclovir]
Fa exp. (PAMPA‐GIT; [11]): 1.70%

CC(C)NCC(O)COc1ccc(CC(N)=O)cc1 (stereo not shown) [Atenolol]
Fa exp. (PAMPA‐GIT; [11]): 2.26%
Fa lit. [1]: 5.2%

Cn1c(=O)c2c(ncn2C)n(C)c1=O [Caffeine, reference compound]
Classification (PAMPA‐BBB; PAMPA-BBB): CNS -

CO/N=C(\C(=O)N[C@@H]1C(=O)N2C(C(=O)O)=C(CSc3nc(=O)c(=O)[nH]n3C)CS[C@H]12)c1csc(N)n1 [Ceftriaxone]
Classification (PAMPA‐GIT; PAMPA-GIT): Low (low permeability (0%–29%))
Fa exp. (PAMPA‐GIT; [11]): 1.37%
Papp (PAMPA‐GIT; [12]): 0.67 ×10⁻⁶ cm/s
Fa lit. [1]: 1%
Pe literature [1]: 0.10 10^-6 cm s^-1

O=C(O)Cc1ccccc1Nc1c(Cl)cccc1Cl [Diclofenac]
Classification (PAMPA‐GIT; PAMPA-GIT): High (high intestinal permeability (70%–100%))
Fa exp. (PAMPA‐GIT; [11]): 99.31%
Papp (PAMPA‐GIT; [12]): 13.1 ×10⁻⁶ cm/s
Fa lit. [1]: 100%
Pe literature [1]: 12.50 10^-6 cm s^-1

CCn1cc(C(=O)O)c(=O)c2cc(F)c(N3CCNCC3)nc21 [Enoxacin, reference compound]
Classification (PAMPA‐BBB; PAMPA-BBB): CNS +
Papp (PAMPA‐BBB; PAMPA-BBB, standard drugs used as control (n = 2), read-out: Pe experimental): 0.56 ×10⁻⁶ cm/s

C#Cc1cccc(Nc2ncnc3cc(OCCOC)c(OCCOC)cc23)c1 [Erlotinib, erlotinib, reference compound]
increase in the population of cells undergoing apoptosis (PC‐9 (EGFRL858R) [2]): approximately 10%
IC50 ([3]; NCI-H1975, 48 h): > 100 µM

CN(C)C/C=C/C(=O)Nc1ccc2ncc(NC(=O)Nc3ccccc3)nc2c1 [LASSBio‐1974 (2)]
CC50 [4]: 20.5 µM
phosphatidylserine externalization and cell membrane permeabilization, share of the NSCLC cell population (PC‐9 (EGFRL858R) [2]): ~90%
inhibition of phosphorylation and activation of EGFR (EGFR in PC‐9 (EGFRL858R); PC‐9, at respective CC50, compared to vehicle (DMSO 1%)): inhibit phosphorylation
cell cycle arrest phase (PC‐9 (EGFRL858R) [5]; 1 µM): cycle arresting in the G0/G1 phase
cell cycle arrest phase (PC‐9 (EGFRL858R) [5]; 10 µM): cell cycle arrest in G2/M phase
Classification BBB (PAMPA‐BBB; PAMPA‐BBB): CNS ±
Pe. Exp. BBB (PAMPA‐BBB; PAMPA‐BBB, mean ± standard deviation (n = 3)): 2.37 10^−6 cm/s
Papp (PAMPA‐BBB; PAMPA‐BBB, mean ± standard deviation (n = 3), read-out: Pe. Exp. BBB): 2.37 ± 0.44 ×10⁻⁶ cm/s
Classification GIT (PAMPA‐GIT; PAMPA‐GIT): Low (low permeability (0%–29%))
Fa (absorbed fraction) (PAMPA‐GIT; PAMPA‐GIT): 26.78%
Papp (PAMPA‐GIT; PAMPA‐GIT, mean ± standard deviation (n = 3), read-out: Pe. Exp. GIT): 0.82 ± 0.47 ×10⁻⁶ cm/s
Metabolism rate [6, 13]: 10.78%
Metabolism rate [6, 14]: 83.11%
Elimination rate constant (k) [6, 13]: 0.0016
Elimination rate constant (k) [6, 14]: 0.1172
half-life at 10 µM [6, 13]: 7.22 h
microsomal CLint at 10 µM [6, 13]: 0.4 µL/min/mg
half-life at 10 µM [6, 14]: 0.0985 h
microsomal CLint at 10 µM [6, 14]: 29.3 µL/min/mg
IC50 (EGFRwt): 0.101 ± 0.012 µM
IC50 (EGFRL858R): 0.032 ± 0.014 µM
IC50 (EGFRL858R/T790M): 0.132 ± 0.049 µM
IC50 (PC‐9 (EGFRL858R) [7]; Homo sapiens, 24 h): 9.74 µM
IC50 (PC‐9 (EGFRL858R) [7]; Homo sapiens, 48 h): 1.22 µM
CC50 (PC‐9 (EGFRL858R) [7]; [15]): 1.1 µM
IC50 (NCI‐H292 (EGFRwt) [8]; NCI-H292, 24 h): 16.4 µM
IC50 (NCI‐H292 (EGFRwt) [8]; NCI-H292, 48 h): 7.25 µM
CC50 (NCI‐H292 (EGFRwt) [8]; read-out: cytotoxic activity CC50, NCI‐H292 (EGFRwt), MTT, 72 h): 4.98 µM
IC50 ([3]; NCI-H1975, 24 h): 38 µM
IC50 ([3]; NCI-H1975, 48 h): 6.58 µM
CC50 [3]: 7.09 µM
CC50 (PC‐9 (EGFRL858R) [9]): 1.22 µM
CC50 (NCI‐H292 (EGFRwt) [10]): 8.99 µM

C=CC(=O)Nc1cc(Nc2nccc(-c3cn(C)c4ccccc34)n2)c(OC)cc1N(C)CCN(C)C [Osimertinib, osimertinib, reference compound]
increase in the population of cells undergoing apoptosis (PC‐9 (EGFRL858R) [2]): approximately 10%
inhibition of phosphorylation and activation of EGFR (EGFR in PC‐9 (EGFRL858R)): inhibited phosphorylation
IC50 (PC‐9 (EGFRL858R) [7]; Homo sapiens, 24 h): 8.32 µM
IC50 (PC‐9 (EGFRL858R) [7]; Homo sapiens, 48 h): 0.17 µM
CC50 (PC‐9 (EGFRL858R) [7]; [15]): 0.05 µM
IC50 (NCI‐H292 (EGFRwt) [8]; NCI-H292, 48 h): 6.81 µM
CC50 (NCI‐H292 (EGFRwt) [8]; read-out: cytotoxic activity CC50, NCI‐H292 (EGFRwt)): 6.3 µM
CC50 (PC‐9 (EGFRL858R) [9]): 0.07 µM
CC50 (NCI‐H292 (EGFRwt) [10]): 6.86 µM

CNC(=C[N+](=O)[O-])NCCSCc1ccc(CN(C)C)o1 [Ranitidine]
Classification (PAMPA‐GIT; PAMPA-GIT): Medium (medium permeability (30%–69%))
Fa exp. (PAMPA‐GIT; [11]): 38.29%
Papp (PAMPA‐GIT; [12]): 0.3 ×10⁻⁶ cm/s

O=C(O)c1cc(/N=N/c2ccc(S(=O)(=O)Nc3ccccn3)cc2)ccc1O [Sulfasalazine]
Fa lit. [1]: 42%
Pe literature [1]: 0.30 10^-6 cm s^-1

COc1ccc(/C=C\c2cc(OC)c(OC)c(OC)c2)cc1O [combretastatin A4, reference compound]
phosphatidylserine externalization and cell membrane permeabilization, share of the NSCLC cell population (PC‐9 (EGFRL858R) [2]): ~60%
CC50 (PC‐9 (EGFRL858R) [7]; read-out: CC50 stated in figure legend, PC‐9, CC50 given as concentration used in flow cytometry, assay and time not stated): 0.1 µM

Source: publication PMC12637173, “Investigation on LASSBio‐1971 and LASSBio‐1974 Cellular Cytotoxic Mechanism and Their Comparative DMPK Profile” (Archiv Der Pharmazie, 2025)
